Source: patent US20260250250A1, “3-(SULPHONYL OR SULFONIMIDOYL)PROP-2-EN-1-YL]-2-OXO-1,2-DIHYDROPYRIDINE-3-CARBOXAMIDE DERIVATIVES” (Flinder Therapeutics B.V., priority 2022, published 2026)

What was measured:
NF-κB signaling pathway = assay: Cell-based dual luciferase NF-κB reporter assay (HEK293 cells, TNF stimulated); conditions: Homo sapiens, HEK293
Experimental: Dual-luciferase reporter assay was designed to find inhibitors of HOIP affecting NF-κB signaling pathway. The assay was performed in HEK293 cells which were transfected with plasmids coding for Firefly and NanoLuc luciferases. The NanoLuc luciferase plasmid contains NF-κB response element which determines its expression.
The assay was run following standard dual-luciferase protocols. The assay consists of a few steps: • compounds were dispensed at a concentration range: 100-0.005 μM with a final DMSO concentration of 1% of final volume (25 μL); • cells were stimulated after 30 min with 2.5 ng/mL TNF; and • after 6 h Firefly and NanoLuc luciferase activities are determined according to the procedure described by the manufacturer of Nano-Glo Dual-Luciferase Reporter Assay System.

[1] = biological target: T1, human E3 ubiquitin-protein ligase RNF31 (HOIP) (Homo sapiens, UniProt Q96EP0); assay: Cell-free HTRF-based HOIP inhibition assay; type: biochemical
T1 sequence (Q96EP0 695-1072 limits assumed): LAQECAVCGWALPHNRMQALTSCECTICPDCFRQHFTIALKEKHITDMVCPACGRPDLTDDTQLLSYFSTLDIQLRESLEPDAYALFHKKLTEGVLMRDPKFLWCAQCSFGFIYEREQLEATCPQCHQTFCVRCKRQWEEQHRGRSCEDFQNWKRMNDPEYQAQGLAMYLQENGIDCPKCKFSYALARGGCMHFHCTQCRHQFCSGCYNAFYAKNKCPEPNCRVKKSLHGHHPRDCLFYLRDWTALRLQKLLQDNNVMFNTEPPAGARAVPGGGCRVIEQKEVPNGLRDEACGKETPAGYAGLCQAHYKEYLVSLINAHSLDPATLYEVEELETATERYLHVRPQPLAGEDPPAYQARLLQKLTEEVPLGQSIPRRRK
Experimental: This assay was performed in the following steps: • a) synthesis of recombinant fragment of human E3 ubiquitin-protein ligase RNF31 (HOIP), expressed with purity >90% in E. coli system (the protein was prepared as 1 mg/mL stock in a standard formulation); • b) incubation of the compounds in a typical concentration range: 100-0.005 μM, at a final DMSO conc. 1% with a mixture of HOIP and ubiquitin activating enzyme E1 at 25° C., for 1 h at 25° C.; • c) followed by addition of a ubiquitination solution including E2 and substrates (the reaction proceeds for 2.5 h at 25° C.); and • d) HTRF detection was performed using a PHERAstar FSX (BMG Labtech) plate reader (excitation at 337 nm, dual emissions at 665 and 620 nm).

[2] = tested on: bladder carcinoma RT4 cell line; assay: TNF-α-induced cytotoxicity assay (CellTiter-Glo viability); type: cell-based; conditions: Homo sapiens, RT-4, 72 h
Experimental: A viability assay, using bladder carcinoma RT4 cell line, was used for identifying the potential inhibitory effect of tested compounds on HOIP activity. The viability was determined by CellTiter-Glo Luminescent Cell Viability Assay (G7571, Promega) which measures the ability of generating a luminescent signal proportional to the amount of ATP present in living cells. The assay consists of a few steps: • a) the cells were routinely sub cultivated twice a week with standard complete growth medium composition; • b) cells were preparated for the assay by creating a cell suspension at the density of 0.05 mln cells/mL and dispensed into plates (ViewPlate-384, PerkinElmer) resulting in 1000 cells/well; • c) cells were stimulated with 1.25 ng/mL TNFα and with compounds and incubated for 72 h at 37° C. in the atmosphere with 5% CO2; and • d) for detection cytotoxicity was measured with CellTiter-Glo® Luminescent Cell Viability Assay based on the method described by the manufacturer.

IC50 (NF-κB signaling pathway) | IC50 [1] | Compound | IC50 [2]
≤ 10 µM | ≤ 10 µM | CC(C)(C)c1ccc(S(=O)(=O)/C=C/CNC(=O)c2cc3c([nH]c2=O)CCCC3)cc1 [Example 50, N-[(2E)-3-(4-tert-butylbenzenesulfonyl)prop-2-en-1-yl]-2-oxo-1,2,5,6,7,8-hexahydroquinoline-3-carboxamide] | –
≤ 1 µM | – | COc1ccc(S(=N)(=O)/C=C/CNC(=O)c2cc3c([nH]c2=O)CCCC3)cc1 (stereo not shown) [Example 57, N-[(2E)-3-[imino(4-methoxyphenyl)oxo-λ^6-sulfanyl]prop-2-en-1-yl]-2-oxo-1,2,5,6,7,8-hexahydroquinoline-3-carboxamide] | ≤ 1 µM
≤ 1 µM | – | CC(C)(C)c1ccc(S(=N)(=O)/C=C/CNC(=O)c2cc3c([nH]c2=O)CCCC3)cc1 (stereo not shown) [Example 61, N-[(2E)-3-[(4-tert-butylphenyl)(imino)oxo-λ^6-sulfanyl]prop-2-en-1-yl]-2-oxo-1,2,5,6,7,8-hexahydroquinoline-3-carboxamide] | ≤ 1 µM
– | ≤ 0.1 µM | N=S(=O)(/C=C/CNC(=O)c1cc2c([nH]c1=O)CCCC2)c1ccc(N2CCCC2)cc1 (stereo not shown) [Example 162, N-[(2E)-3-[imino(oxo)[4-(Pyrrolidin-1-yl)phenyl]-λ^6-sulfanyl]prop-2-en-1-yl]-2-oxo-1,2,5,6,7,8-hexahydroquinoline-3-carboxamide] | ≤ 1 µM
– | ≤ 1 µM | CC(=O)Nc1ccc(S(=N)(=O)/C=C/CNC(=O)c2cc3c([nH]c2=O)CCCC3)cc1 (stereo not shown) [Example 163, N-[(2E)-3-[(4-acetamidophenyl)(imino)oxo-λ^6-sulfanyl]prop-2-en-1-yl]-2-oxo-1,2,5,6,7,8-hexahydroquinoline-3-carboxamide] | ≤ 100 µM
– | ≤ 0.1 µM | N=S(=O)(/C=C/CNC(=O)c1cc2c([nH]c1=O)CCCC2)c1ccc(OC2CC2)cc1 (stereo not shown) [Example 164, N-[(2E)-3-[(4-cyclopropoxyphenyl)(imino)oxo-λ^6-sulfanyl]prop-2-en-1-yl]-2-oxo-1,2,5,6,7,8-hexahydroquinoline-3-carboxamide] | ≤ 1 µM
– | ≤ 1 µM | CN(C)c1cccc(S(=N)(=O)/C=C/CNC(=O)c2cc3c([nH]c2=O)CCCC3)c1 (stereo not shown) [Example 165, N-[(2E)-3-{[3-(dimethylamino)phenyl](imino)oxo-λ^6-sulfanyl}prop-2-en-1-yl]-2-oxo-1,2,5,6,7,8-hexahydroquinoline-3-carboxamide] | ≤ 1 µM
– | ≤ 0.1 µM | N=S(=O)(/C=C/CNC(=O)c1cc2c([nH]c1=O)CCCC2)c1ccc(C2CCCCC2)cc1 (stereo not shown) [Example 166, N-[(2E)-3-[(4-cyclohexylphenyl)(imino)oxo-λ^6-sulfanyl]prop-2-en-1-yl]-2-oxo-1,2,5,6,7,8-hexahydroquinoline-3-carboxamide] | ≤ 1 µM
– | ≤ 1 µM | N=S(=O)(/C=C/CNC(=O)c1cc2c([nH]c1=O)CCCC2)c1ccc2c(c1)CCO2 (stereo not shown) [Example 167, N-[(2E)-3-[(2,3-dihydro-1-benzofuran-5-yl)(imino)oxo-λ^6-sulfanyl]Prop-2-en-1-yl]-2-oxo-1,2,5,6,7,8-hexahydroquinoline-3-carboxamide] | ≤ 1 µM
– | ≤ 0.1 µM | N=S(=O)(/C=C/CNC(=O)c1cc2c([nH]c1=O)CCCC2)c1cccc(OC(F)(F)F)c1 (stereo not shown) [Example 168, N-[(2E)-3-[imino(oxo)[3-(trifluoromethoxy)phenyl]-λ^6-sulfanyl]prop-2-en-1-yl]-2-oxo-1,2,5,6,7,8-hexahydroquinoline-3-carboxamide] | ≤ 1 µM
– | ≤ 1 µM | COc1ccc(CN2CCc3[nH]c(=O)c(C(=O)NC/C=C/S(=N)(=O)c4ccc(OC)c(F)c4)cc3C2)cc1 (stereo not shown) [Example 171, N-[(2E)-3-[(3-fluoro-4-methoxyphenyl)(imino)oxo-λ^6-sulfanyl]prop-2-en-1-yl]-6-[(4-methoxyphenyl)methyl]-2-oxo-1,2,5,6,7,8-hexahydro-1,6-naphthyridine-3-carboxamide] | ≤ 1 µM
– | ≤ 1 µM | COc1ccc(S(=N)(=O)/C=C/CNC(=O)c2cc3c([nH]c2=O)CCC(F)C3)cc1F (stereo not shown) [Example 172, 6-fluoro-N-[(2E)-3-[(3-fluoro-4-methoxyphenyl)(imino)oxo-λ^6-sulfanyl]prop-2-en-1-yl]-2-oxo-1,2,5,6,7,8-hexahydroquinoline-3-carboxamide] | ≤ 10 µM
– | ≤ 0.1 µM | N#Cc1cc(S(=N)(=O)/C=C/CNC(=O)c2cc3c([nH]c2=O)CCCC3)ccc1N1CCCCC1 (stereo not shown) [Example 173, N-[(2E)-3-{[3-cyano-4-(piperidin-1-yl)phenyl](imino)oxo-λ^6-sulfanyl}prop-2-en-1-yl]-2-oxo-1,2,5,6,7,8-hexahydroquinoline-3-carboxamide] | ≤ 1 µM
– | ≤ 1 µM | CNc1ccc(S(=N)(=O)/C=C/CNC(=O)c2cc3c([nH]c2=O)CCCC3)cc1 (stereo not shown) [Example 174, N-[(2E)-3-{imino[4-(methylamino)phenyl]oxo-λ^6-sulfanyl}prop-2-en-1-yl]-2-oxo-1,2,5,6,7,8-hexahydroquinoline-3-carboxamide] | ≤ 1 µM
– | ≤ 0.1 µM | N#Cc1cc(S(=N)(=O)/C=C/CNC(=O)c2cc3c([nH]c2=O)CCCC3)ccc1N1CCOCC1 (stereo not shown) [Example 175, N-[(2E)-3-{[3-cyano-4-(morpholin-4-yl)phenyl](imino)oxo-λ^6-sulfanyl}prop-2-en-1-yl]-2-oxo-1,2,5,6,7,8-hexahydroquinoline-3-carboxamide] | ≤ 10 µM
– | ≤ 0.1 µM | CN1CCCc2cc(S(=N)(=O)/C=C/CNC(=O)c3cc4c([nH]c3=O)CCCC4)ccc21 (stereo not shown) [Example 177, N-[(2E)-3-[imino(1-methyl-1,2,3,4-tetrahydroquinolin-6-yl)oxo-A*-sulfanyl]prop-2-en-1-yl]-2-oxo-1,2,5,6,7,8-hexahydroquinoline-3-carboxamide] | ≤ 1 µM
– | ≤ 0.1 µM | COc1ccc(S(=N)(=O)/C=C/CNC(=O)c2cc3c([nH]c2=O)CCN(C(=O)OC2CCC(F)(F)CC2)C3)cc1F (stereo not shown) [Example 183, 4,4-difluorocyclohexyl 3-{[(2E)-3-[(3-fluoro-4-methoxyphenyl) (imino)oxo-λ^6-sulfanyl]prop-2-en-1-yl]carbamoyl}-2-oxo-1,2,5,6,7,8-hexahydro-1,6-naphthyridine-6-carboxylate] | ≤ 10 µM
– | ≤ 0.1 µM | COc1ccc(S(=N)(=O)/C=C/CNC(=O)c2cc3c([nH]c2=O)CCN(C(=O)OC2CCCCC2)C3)cc1F (stereo not shown) [Example 184, cyclohexyl 3-{[(2E)-3-[(3-fluoro-4-methoxyphenyl)(imino)oxo-λ^6-sulfanyl]prop-2-en-1-yl]carbamoyl}-2-oxo-1,2,5,6,7,8-hexahydro-1,6-naphthyridine-6-carboxylate] | ≤ 1 µM
– | ≤ 10 µM | COc1ccc(S(=N)(=O)/C=C/CNC(=O)c2cc3c([nH]c2=O)CCN(CC2CC2)C3)cc1F (stereo not shown) [Example 185, 6-(cyclopropylmethyl)-N-[(2E)-3-[(3-fluoro-4-methoxyphenyl) (imino)oxo-λ^6-sulfanyl]prop-2-en-1-yl]-2-oxo-1,2,5,6,7,8-hexahydro-1,6-naphthyridine-3-carboxamide] | ≤ 100 µM
– | ≤ 1 µM | COc1ccc(S(=N)(=O)/C=C/CNC(=O)c2ccc[nH]c2=O)cc1F (stereo not shown) [Example 186, N-[(2E)-3-[(3-fluoro-4-methoxyphenyl)(imino)oxo-λ^6-sulfanyl]prop-2-en-1-yl]-2-oxo-1,2-dihydropyridine-3-carboxamide] | ≤ 10 µM
